According to article PMC10222323, “Novel Biotinylated Cu(II)-Phenanthroline Complexes: 2D and 3D Cytotoxic Activity and Mechanistic Insight” (Molecules, 2023):

How the values were obtained:
[1] = tested on: A431 (cervical) cancer cells; experiment: MTT cytotoxicity test, 72 h, A431; assay type: cell-based, human; conditions: mean ± S.D.
Method: (§1) The in vitro anticancer potential of the newly developed complexes and of the ligands has been tested on six different cancer cell lines including PSN-1 (pancreatic), HCT-15 (colorectal with low sensitivity for cisplatin), 2008 (ovarian), A431 (cervical), MDA-MB-231 (breast), and U1285 (lung) cancer cells. For comparison purposes, cisplatin efficacy was assessed under the same experimental conditions.
Tested compounds were dissolved in DMSO and added to the cell-growth medium to a final solvent concentration of 0.5%, which is well reported to not have cytotoxic effects on cell viability. Cisplatin (Sigma Chemical Co., St. Louis, MO, USA) was dissolved in a physiologic solution (0.9% sodium chloride).
Human colon (HCT-15), pancreatic (PSN-1), and breast (MDA-MB-231) carcinoma-cell lines were obtained from the American Type Culture Collection (ATCC, Rockville, MD). Human cervical carcinoma (A431) cells were kindly provided by Prof. F. Zunino (Division of Experimental Oncology B, Istituto Nazionale dei Tumori, Milan). Human ovarian carcinoma (2008) cells and their cisplatin-resistant counterpart (C13*) were kindly provided by Prof. G. Marverti (Dipartimento di Scienze Biomediche, Università di Modena University, Italy). Cell lines were cultured in RPMI-1640 or DMEM medium (Euroclone) added with 10% fetal calf serum (Euroclone, Milan, Italy), antibiotics (50 units per mL penicillin, and 50 μg mL^−1 streptomycin), and 2 mM L-glutamine.
(§2) The growth inhibitory effect toward the tumour cell lines was evaluated by the MTT test as previously described.

[2] = tested on: human pancreatic PSN-1 cancer-cell spheroids; experiment: 3D spheroid cytotoxicity, APH assay, 72 h; assay type: cell-based; conditions: for IC50: 3D spheroids, 72 h, APH test; for times more effective than cisplatin in 3D spheroids: PSN-1 3D spheroids, relative to cisplatin
Method: The cancer spheroids were treated with tested complexes for 72 h, and the cell viability was estimated by means of a modified acid phosphatase (APH) assay.
Spheroid cultures were performed by seeding 2.5 × 10^3 PSN-1 cancer cells/well in spheroid-suitable tissue culture untreated 96-well plates (Greiner Bio-one, Kremsmünster, Austria) in RPMI-1640 cell culture medium without phenol red (Sigma Chemical Co., St. Louis, MO, USA) containing 10% fetal calf serum and supplemented with 20% methyl cellulose stock solution.
An established APH-modified assay was used to detect the cytotoxicity profile in 3D spheroids, as previously described. IC50 values were calculated using a 4-PL model.

[3] = tested on: genomic DNA of MDA-MB-231 cells; conditions: 3 h; for cells with lesioned genomic DNA (comets): 4 μM, fraction of treated cells
Method: As proof of the principle of their DNA-targeting ability, the alkaline single-cell gel electrophoresis (Comet assay, Figure 4) assay was performed to evaluate cellular genomic DNA lesions induced by tested complexes. […] MDA-MDB-231 cells were exposed for 3 h to 4 μM of tested compounds or 200 µM of the reference drug chlorambucil. Figure 4A depicts the relative percentage of comets and the number of cells forming a comet relative to the total number of detected cells per each condition in two randomly captured fields from two independent experiments. […] On the other hand, some reports highlighted protein disulphide isomerase (PDI) as an emerging target for copper complexes. On this basis, we also evaluated the ability of our complexes to act as PDI inhibitors. The enzyme was treated with 25 µM of complexes 2 and 4, and the ability to hamper its activity was assessed by a biochemical colourimetric method (Proteostat kit).
About 3 × 10^4 MDA-MB-231 cells were seeded in 25 cm^2 flasks in a growth medium. After overnight incubation, cells were treated for 3 h with […] of tested compounds and processed as previously described. Pictures were captured with a Zeiss LSM-800 confocal microscope (Zeiss, Oberkochen, Germany). All photos were analyzed by the Zen 2.3 system (Zeiss, Oberkochen, Germany).
Figure 4 Mechanistic studies. (A) Comet assay: MDA-MDB-231 cells were treated for 3 h with 4 μM of tested compounds 2 and 4 or 200 µM of the reference drug chlorambucil. The relative percentage of comets (number of cells forming a comet/total number of cells) was detected in two randomly captured fields from two independent experiments. (B) PDI inhibition induced by tested compounds was measured by Proteostat PDI assay kit. The PDI inhibitor Bacitracine (0.5 mM) was used as a positive control. Error bars indicate S.D. ** p < 0.01 compared with control.

[4] = tested on: six different cancer cell lines; experiment: MTT cytotoxicity, average over the cancer cell line panel; assay type: cell-based, human; conditions: 2D assays, average over the cancer cell lines of Table 1
Method: as §1
Due to note, all the complexes were very effective in the MDA-MB-231 cell line, which overexpress the SMVT (sodium-dependent multivitamin transporter) receptor, which is well known to be involved in the intracellular translocation of biotin [24].
as §2

[5] = tested on: MDA-MB-231 cells; conditions: 24 h, 2 and 3 μM
Method: The ability to enter cancer cells is a very important factor to determine the biological activity of metal-based compounds. Consequently, with the aim of correlating the antiproliferative activity elicited by all the newly developed complexes and their accumulation profiles into cancer cells, the Cu content was evaluated in the SMVT overexpressing MDA-MB-231 cells. Uptake profiles were determined by treating cancer cells for 24 h with two concentrations (2 and 3 μM) of tested complexes.
MDA-MB-231 cells (2.5 × 10^6) were seeded in 75 cm^2 flasks in a growth medium (20 mL). Following 24 h, cells were treated for 24 h with tested complexes and samples processed as previously described.
Figure 2 Cellular uptake of complexes 1–4 in drug-treated MDA-MB-231 human breast cancer cells. Cells were incubated for 24 h with […] of tested complexes. The amount of cellular Cu was estimated by GF-AAS. Error bars are S.D.

[6] = tested on: MDA-MB-231 cells; conditions: 3 μM, 24 and 48 h

SMILES	IC50 [1] [nM]	IC50 [2] [nM]	times more effective than cisplatin in 3D spheroids [2]	cells with lesioned genomic DNA (comets) [3]	IC50 [4] [nM]	DNA damaging efficacy compared with chlorambucil ([3]; 4 μM compound vs 200 µM chlorambucil)	Cu intracellular content (uptake) [5]	apoptosis induction (Hoechst staining) [6]
O=C(CCCC[C@@H]1SC[C@@H]2NC(=O)N[C@@H]21)NN=C1C(=O)c2ccc[n+]3c2-c2c1ccc[n+]2[Cu-2]3([Cl])[Cl] [Complex 2, [Cu(phendione-biotin)Cl2]]	1200 ± 500	1300 ± 500	about forty	at least one fourth	–	–	–	–
O=C(CCCC[C@@H]1SC[C@@H]2NC(=O)N[C@@H]21)NN=C1C(=O)c2ccc[n+]3c2-c2c1ccc[n+]2[Cu-2]31[n+]2cccc3ccc4ccc[n+]1c4c32.O=[N+]([O-])[O-].O=[N+]([O-])[O-] [Complex 4, [Cu(phen)(phendione-biotin)](NO3)2]	300 ± 30	6900 ± 1300	eight	one third	800	much higher than that induced by the reference compound chlorambucil	most internalised into cancer cells	morphological features typical of cells undergoing apoptosis
